What was measured:
[1] = system: S. mansoni newly transformed schistosomula (NTS); assay: In vitro testing on Schistosoma mansoni newly transformed schistosomula (NTS), viability score; type: cell-based; conditions: 72 h
Experimental: Assays were prepared according to the laboratory SOP for the lab of Dr. Jennifer Keiser (Swiss Tropical and Public Health Institute, Basel). Harvested S. mansoni cercariae (Liberian strain) obtained from infected Biomphalaria glabrata snails were mechanically transformed into newly transformed schistosomula (NTS) following standard procedures. Briefly, snails were placed under light in the morning to stimulate cercarial shedding. The cercarial suspension was collected, cooled for 30 minutes, and then vigorously pipetted (30×) and vortexed (3 minutes). The suspension was then placed in the incubator (37° C. and 5% CO2) for 30 minutes, and the vortexing and pipetting steps were repeated. The transformation was complete at this point, and the tails were separated from the heads by rinsing three times with cold HBSS. NTS were then incubated overnight in culture medium overnight and used the next day.
The original stock compounds (which were not already dissolved) were dissolved in dimethyl sulfoxide (DMSO) to a concentration of 10 mM. 100 NTS were placed in each well of a 96-well plate with culture medium, and the test compound for a final well volume of 250 μl. […] NTS incubated with no more than 1% DMSO served as control. NTS were kept in an incubator at 37° C. and 5% CO2 for up to 72 hours. After 72 hours, the condition of the NTS was microscopically evaluated using a scale from 3 (normal activity and no tegument alteration) to 0 (dead, completely granulated).

[2] = system: Plasmodium falciparum W2 clone (Indochina, chloroquine-resistant); assay: In vitro antimalarial assay, chloroquine-resistant W2 clone; type: cell-based; conditions: W2 clone; for IC50: converted with molecular weight, read-out: P. falciparum W2 IC50; for X more potent than chloroquine: molar IC50 ratio versus chloroquine
Experimental: (§1) The compounds were assayed for in vitro antimalarial activity against the W2 clone and D6 clone of the pathogenic Plasmodium falciparum. The strains of P. falciparum were obtained from the Division of Experimental Therapeutics, Walter Reed Army Institute of Research, Washington D.C. Strains of Sierra Leon D6 and Indochina W2 are chloroquine-sensitive and chloroquine-resistant, respectively. The parasite was grown in type A human RBCs and, two strains subcultured daily with fresh medium and blood cells. On the day of the assay, a suspension of infected blood cells (2% parasitemia and 2% hematocrit) was prepared using type A human red blood cells. Assays were performed by standard 96-well flat-bottomed microplate methods and done in duplicate at different concentrations. IC50 values were obtained from the dose curves. Artemisinin and chloroquine were included in each assay as the drug controls, and DMSO was used as vehicle control. The whole protocol was developed based on the published method of Makler. The cytotoxicity assays were also performed in parallel against the Vero cells, and the selectivity index was measured. A selectivity index of >9 was considered to indicate a lead for further development of antimalarial drug.

[3] = system: Plasmodium falciparum D6 clone (Sierra Leon, chloroquine-sensitive); assay: In vitro antimalarial assay, chloroquine-sensitive D6 clone; type: cell-based; conditions: D6 clone; for IC50: converted with molecular weight, read-out: P. falciparum D6 IC50; for X more potent than chloroquine: molar IC50 ratio versus chloroquine
Experimental: as §1

[4] = system: Cryptococcus neoformans ATCC 90113; assay: Antimicrobial microdilution assay against Cryptococcus neoformans (modified CLSI/NCCLS, optical density); type: cell-based; conditions: for X more potent than Amphotericin B: C. neoformans, ratio of molar IC50 to Amphotericin B; for C. neoformans IC50 / IC50: in vitro, C. neoformans ATCC 90113; for IC50: read-out: C. neoformans IC50 (mol/L)
Procedure, shortened: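 Fungicidal endpoint taken by subculturing 5 μL from each clear well onto agar, MFC being the lowest concentration with no regrowth. Duplicate wells of serially diluted compound (20% DMSO/saline) in RPMI pH 6.0, read at 630 nm pre- and post-incubation, under modified CLSI methods. IC50 means 50% growth inhibition against controls.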

[5] = system: L. donovani promastigotes; assay: Antileishmanial Alamar Blue assay on promastigotes; type: cell-based, Leishmania donovani; conditions: for X more potent than Pentamidine: L. donovani, ratio of molar IC50 to Pentamidine; for L. donovani IC50 / IC50: promastigotes, 48 hours, Alamar Blue; for IC50: read-out: L. donavani IC50
Procedure, shortened: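 Alamar Blue fluorescence (544/590 nm) quantified growth after 48 hours at 26° C of compound-treated promastigotes. Parasites were seeded at 5×10^5/mL in RPMI 1640 plus 10% FCS; drug range 50-3.1 μg/mL, and IC50 derived by plotting percent growth against test concentration.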

[6] = system: Staphylococcus aureus ATCC 29213; assay: Antibacterial broth dilution assay against S. aureus (modified CLSI); type: cell-based
Procedure, shortened: (§2)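 Growth read by optical density at 530 nm, duplicate wells, 1% final DMSO. Staphylococcus spp.: Mueller-Hinton pH 7.3, 5.0×10^5 CFU/ml, 35 °C for 16-20 h; Candida spp.: RPMI/dextrose/glutamine/MOPS pH 6.0, 1.5×10^3 CFU/ml, 35 °C for 46-50 h. Reported values are 50% inhibition versus controls, no-growth MIC, and killing MFC/MBC.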

C. glabrata ATCC 90030 = assay: Antifungal broth dilution assay against C. glabrata (modified CLSI); type: cell-based, Candida glabrata
Procedure, shortened: as §2

[7] = in vitro, converted with molecular weight

Compound | Effect at 72 h (%) ([1]; NTS S. mansoni, 33 μM) | P. falciparum W2 IC50 [2] [µg/mL] | IC50 [2] [µM] | X more potent than chloroquine [2] | P. falciparum D6 IC50 [3] [µg/mL] | IC50 [3] [µM] | X more potent than chloroquine [3] | X more potent than Amphotericin B [4] | C. neoformans IC50 [4] [µg/mL] | IC50 [4] [µM] | Effect at 72 h (%) ([1]; NTS S. mansoni at 10 μM) | X more potent than Pentamidine [5] | L. donovani IC50 [5] [µg/mL] | IC50 [5] [µM] | S. aureus IC50 ([6]; in vitro) [µg/mL] | IC50 [6, 7] [µM] | X more potent than ciprofloxacen ([6]; molar IC50 ratio versus ciprofloxacen) | C. glabrata IC50 (C. glabrata ATCC 90030; in vitro) [µg/mL] | IC50 (C. glabrata ATCC 90030; [7]) [µM] | X more potent than Amphotericin B (C. glabrata ATCC 90030; molar IC50 ratio versus amphotericin B)
CC(=O)[O-].F[P-](F)(F)(F)(F)F.[Cu+2].c1ccc(CN2CCN3CCN(CC2)CCN(Cc2ccccc2)CC3)cc1 [RM58] | 5.41 | 0.2015 | 0.312 | 2.18 | 0.0947 | 0.147 | 0.25 |  |  |  |  |  |  |  |  |  |  |  |  | 
[Mn(Bn1Me1-CB-Cyclam)Cl2] [NS11] | 5.41 | 0.5300 | 1.16 | 0.58 | 0.6142 | 1.35 | 0.03 | 0.02 | 5.038 | 11 |  |  |  |  |  |  |  |  |  | 
c1ccc(CN2CCCN3CCN(CCCN(Cc4ccccc4)CC3)CC2)cc1 [JGL45, Bn2Bcyclam] | 81.08 | 0.1772 | 0.436 | 1.56 | 1.0894 | 2.68 | 0.01 |  |  |  | 44.83 | 0.55 | 3.94 | 9.69 |  |  |  |  |  | 
[Cl-].[Cl-].[Fe+2].c1ccc(CN2CCCN3CCN(CCCN(Cc4ccccc4)CC3)CC2)cc1 [NS08, Fe(Bn2Bcyclam)Cl2] | 18.02 | 0.2271 | 0.426 | 1.59 | 0.1726 | 0.324 | 0.11 |  |  |  | 51.72 | 1.66 | 1.71 | 3.21 |  |  |  |  |  | 
CC(=O)[O-].CN1CCCN2CCN(CCCN(Cc3ccccc3)CC2)CC1.F[P-](F)(F)(F)(F)F.[Cu+2] [RM56A, [Cu(Bn1Me1Bcyclam)(OAc)]PF6] | 18.02 | 0.6747 | 1.13 | 0.60 | 0.7145 | 1.2 | 0.03 |  |  |  |  | 0.10 | 33.32 | 55.7 |  |  |  |  |  | 
CC(=O)[O-].CC(=O)[O-].CN1CCCN2CCN(CCCN(Cc3ccc(CN4CCCN5CCN(C)CCCN(CC5)CC4)cc3)CC2)CC1.F[P-](F)(F)(F)(F)F.F[P-](F)(F)(F)(F)F.[Ni+2].[Ni+2] [KS33, [Ni2(p-CB-cyclams)(OAc)2](PF6)2] | 0.00 |  |  |  |  |  |  | 0.26 | 1.020 | 0.92 |  |  |  |  | 8.490 | 7.66 | 0.04 |  |  | 
[Cu3(tris-SB-Cyclams)(OAc)3][PF6]3•1.5NH4PF6 [CDG027] | 11.71 |  |  |  |  |  |  | 0.34 | 1.280 | 0.696 |  |  |  |  |  |  |  | 1.630 | 0.886 | 1.60

— patent US12139481B2, “Compositions comprising macrocycle derivatives incorporating bridged macrocycles and methods of producing and using same” (Southwestern Oklahoma State University, priority 2015, dated 2024)
